ChEMBL document CHEMBL1137049 (Bioorg Med Chem Lett, 2004)
pEC50, pKi: −log10 of the molar value.

Columns and labels:
Histamine H3 receptor [1] = target: T1, Histamine H3 receptor (Homo sapiens, UniProt Q9Y5N1); assay: Effective concentration required against human histamine H3 receptor was determined by the inhibition of the cAMP stimulated beta-galactosidase transcription in SK-N-MC cells; assay type: cell-based
Histamine H3 receptor [2] = target: T1, Histamine H3 receptor; assay: Intrinsic activity against human histamine H3 receptor
Histamine H3 receptor [3] = target: T1, Histamine H3 receptor; assay: Binding affinity towards human histamine H3 receptor was determined by [3H]Na-methylhistamine binding to SK-N-MC cell membranes
Histamine H4 receptor = Histamine H4 receptor (Homo sapiens, UniProt Q9H3N8); assay: Binding affinity towards human histamine H4 receptor was determined by [3H]Na-methylhistamine binding to SK-N-MC cell membranes
Histamine H4 receptor, sequence (Q9H3N8 whole entry): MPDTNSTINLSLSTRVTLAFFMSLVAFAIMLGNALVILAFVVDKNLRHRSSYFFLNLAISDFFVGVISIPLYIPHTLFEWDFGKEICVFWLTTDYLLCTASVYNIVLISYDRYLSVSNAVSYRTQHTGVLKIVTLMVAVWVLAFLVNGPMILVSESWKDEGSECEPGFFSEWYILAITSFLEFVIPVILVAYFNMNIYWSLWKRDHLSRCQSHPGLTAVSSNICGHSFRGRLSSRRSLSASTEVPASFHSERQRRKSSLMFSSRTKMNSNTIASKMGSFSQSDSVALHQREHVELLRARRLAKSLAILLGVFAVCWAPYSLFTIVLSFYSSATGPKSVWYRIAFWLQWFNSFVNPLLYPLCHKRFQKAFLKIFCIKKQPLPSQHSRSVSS

T1 sequence (Q9Y5N1 whole entry): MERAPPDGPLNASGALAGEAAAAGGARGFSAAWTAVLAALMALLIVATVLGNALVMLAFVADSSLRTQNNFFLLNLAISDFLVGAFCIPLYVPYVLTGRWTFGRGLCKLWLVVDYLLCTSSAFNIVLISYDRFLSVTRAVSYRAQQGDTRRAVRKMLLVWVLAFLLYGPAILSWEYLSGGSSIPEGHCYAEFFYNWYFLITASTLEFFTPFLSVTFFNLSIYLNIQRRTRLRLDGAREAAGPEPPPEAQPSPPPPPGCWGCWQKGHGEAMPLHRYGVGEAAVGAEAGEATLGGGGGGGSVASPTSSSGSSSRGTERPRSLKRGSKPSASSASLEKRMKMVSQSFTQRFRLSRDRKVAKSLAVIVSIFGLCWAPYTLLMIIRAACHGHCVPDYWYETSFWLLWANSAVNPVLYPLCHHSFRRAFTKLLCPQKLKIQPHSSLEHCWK

SMILES | pEC50 (Histamine H3 receptor [1]) | Intrinsic activity (Histamine H3 receptor [2]) | pKi (Histamine H3 receptor [3]) | pKi (Histamine H4 receptor)
CN(C)CCNC(=O)c1nc2cc(Cl)ccc2[nH]1 | 5.50 | -0.5 | 4.60 | 6.00
CN1CCC(C(O)c2cc3cc(Cl)ccc3[nH]2)CC1 (stereo not drawn) | 6.00 | -0.5 | 5.80 | 5.30
CN(C)CCN(C)C(=O)c1cc2cc(Cl)ccc2[nH]1 | – | – | – | 4.60
CN1CCC(C(=O)c2cc3cc(Cl)ccc3[nH]2)CC1 | 6.00 | -0.5 | 5.50 | 6.70
CN1CCN(NC(=O)c2nc3cc(Cl)ccc3[nH]2)CC1 | – | – | – | < 4.00
CN(C)c1cccc(-c2nc3cc(Cl)ccc3[nH]2)c1 | – | – | – | < 4.00
CN1CCN(C(=O)c2cc3cc(I)ccc3[nH]2)CC1 | 5.50 | -0.8 | 5.60 | 7.20
CN(C)CCNC(=O)c1cc2cc(Cl)ccc2[nH]1 | – | 0 | 5.30 | 5.50
CN1CCN(C(=O)Nc2nc3cc(Cl)ccc3[nH]2)CC1 | – | – | – | 4.70
O=C(c1cc2cc(Cl)ccc2[nH]1)N1CCCCC1 | 5.50 | -0.6 | 5.20 | 5.10
CN(C)CCN(C)C(=O)c1nc2cc(Cl)ccc2[nH]1 | – | – | – | 4.60
CN1CCN(C(=O)c2nc3ccc(Cl)cc3[nH]2)CC1 | – | -1 | – | –
CN1CCN(C(=O)c2cc3cc(Cl)ccc3[nH]2)CC1 [JNJ-7777120] | 6.00 | -0.7 | 5.70 | –
CN1CCN(C(=O)c2nc3cc(Cl)ccc3[nH]2)CC1 | 5.50 | – | 5.40 | 7.10
CC(=O)Nc1nc2cc(Cl)ccc2[nH]1 | – | – | – | < 4.00
CN(C)CCCNC(=O)c1cc2cc(Cl)ccc2[nH]1 | – | – | – | < 4.00
CN1CCN(NC(=O)c2cc3cc(Cl)ccc3[nH]2)CC1 | – | – | – | 4.60
O=C(c1cc2cc(Cl)ccc2[nH]1)N1CCOCC1 | – | – | – | < 4.00
CN1CCN(C(=O)c2cc3cc(Br)ccc3[nH]2)CC1 | 5.80 | -0.7 | 5.50 | 7.50
